Reference: patent US20100063048A1, “Remedy for angiospasm accompanying subarachnoid hemorrhage containing thrombin receptor antagonist as the active ingredient” (Eisai R&D Mangement Co., Ltd., priority 2004, published 2010)
“Also recorded” adds a separate entry of the source. Each block holds one compound with its values, some of them ahead of it.

Legend:
rabbit basilar arteries [1] = test: Contractile responses of endothelium-removed rabbit basilar artery ring preparations to thrombin / PAR1-AP
Experimental: (§1) First, 2.5 ml each of autologous arterial blood was injected into the cisterna magnas twice on Days 0 and 2. Hereinafter, this group is also referred to herein as the “SAH group”. Models injected with equal amounts of saline instead of autologous arterial blood constituted the control group. On Day 7, rabbits from each group were euthanized and endotheliums were removed from the dissected basilar arteries to produce ring preparations (500 μm in width) (FIG. 2). The endothelium-removed basilar artery ring preparations produced in this example were used to perform experiments on contractile response in the following examples.
(§2) Contractile responses to thrombin were determined for the rabbit basilar arteries from the control group and the SAH group. Following contractile response induced by 118 mM K+ depolarization stimulation, the basilar artery ring preparations were stimulated with thrombin. Thrombin is an endogenous ligand of PAR1.
Same experiment as Example 3 was performed using PAR1-AP (PAR1-activating peptide) instead of thrombin.

[2] = system: α toxin-skinned basilar arteries; test: Contractile responses of α toxin-skinned basilar arteries to thrombin and PAR1-AP; parameters: species or system rabbit
Experimental: Alpha toxin is a substance that confers permeability to cell membrane. In a rabbit basilar artery that is treated with α toxin for permeabilization (hereinafter, also referred to as an “a toxin-skinned basilar artery”), contractile response associated with increase in calcium ion concentration and contractile response to GTPγS that activates G protein were measured.
Next, contractile responses of a toxin-skinned basilar arteries to thrombin and PAR1-AP were measured.

thrombin = conditions: administration to a subarachnoid hemorrhage animal model; cited from earlier work
PAR1 = target: T1, PAR1 (Oryctolagus cuniculus, UniProt G1TTP8); test: Effect of PAR1 antagonist on contractile response of rabbit basilar arteries to thrombin (rabbit double-hemorrhage SAH model); assay type: in vivo
T1 construct: from tissue; host or cells: rabbit basilar artery (E5555 co-injected with autologous blood into the cistern; artery rings tested ex vivo)
T1 sequence (G1TTP8 1-460): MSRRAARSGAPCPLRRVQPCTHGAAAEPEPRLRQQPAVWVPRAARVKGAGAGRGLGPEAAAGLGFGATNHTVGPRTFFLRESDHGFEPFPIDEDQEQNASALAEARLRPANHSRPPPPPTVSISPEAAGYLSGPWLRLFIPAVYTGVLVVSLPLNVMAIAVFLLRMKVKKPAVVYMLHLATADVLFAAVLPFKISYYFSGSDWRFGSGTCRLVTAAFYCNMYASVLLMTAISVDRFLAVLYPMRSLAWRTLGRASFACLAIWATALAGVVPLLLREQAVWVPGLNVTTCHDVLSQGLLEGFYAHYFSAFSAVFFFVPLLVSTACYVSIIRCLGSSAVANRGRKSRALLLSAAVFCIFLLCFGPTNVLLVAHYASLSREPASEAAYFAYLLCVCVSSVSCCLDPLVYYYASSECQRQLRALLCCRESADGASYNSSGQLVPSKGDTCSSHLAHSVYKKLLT
Experimental: as §1, §2
Contractile responses of the rabbit basilar arteries to thrombin were determined for the control group (sham surgery group), the SAH group and the SAH group coexisting with the PAR1 antagonist. Stimulation was given in the same manner as in Example 3.
In this example, the “sham surgery group (sham)” (control rabbit) refers to those obtained by injecting 3 ml saline twice into rabbit cisterns on Days 0 and 2, the “SAH group”(subarachnoid hemorrhage model) refers to those obtained by injecting 3 ml autologous blood twice into rabbit cisterns on Days 0 and 2, and the “SAH+E5555 group” (E5555-administered subarachnoid hemorrhage model) refers to those obtained by injecting 3 ml autologous blood supplemented with 600 μg E5555 twice into rabbit cisterns on Days 0 and 2.
On Day 7, the basilar arteries were removed to assess contractile responses to 118 mM K+ and 1 unit/ml thrombin.
In the same manner as Example 10, contractile responses of the rabbit basilar arteries to thrombin were determined for the control group (the sham surgery group), the SAH group and the SAH group coexisting with the PAR1 antagonist.
In this example, 3 ml each of autologous blood supplemented with 60 ng, 600 ng, 6 μg or 60 μg of E5555 was injected twice into rabbit cistern on Days 0 and 2.

rabbit basilar arteries [3] = test: Effect of heparinized autologous blood on increased contractile response in SAH group; assay type: in vivo; conditions: models injected twice with heparinized autologous blood (SAH+heparin)
Experimental: as §1
In order to find out the effect of heparin on this increase in the contractile response, an experiment was conducted according to the method of Example 1 using models that had been injected twice with heparinized autologous blood. Heparin forms a complex with anti-thrombin III and becomes an anticoagulant that inactivates blood coagulation factor.

Compound: thrombin
concentration from which significant continuous contraction is induced (rabbit basilar arteries [1]; SAH group): ≥ 0.3 units/ml
reversibility of contractile response on washing (rabbit basilar arteries [1]; SAH group, Day 7, 1 unit/ml thrombin or 100 μM PAR1-AP): not changed by washing
contractile force (% of 118 mM K+-induced contraction) (rabbit basilar arteries [1]; SAH group, thrombin 1 unit/ml): 73.1±2.8%
contraction (rabbit basilar arteries [1]; control group, thrombin 1 unit/ml): did not induce contraction
contractile force (% of 118 mM K+-induced contraction) (rabbit basilar arteries [1]; control group, thrombin 10 units/ml, mild temporary contraction): 21.3±1.2%
effect on contractile response induced by calcium ion ([2]; SAH group): significantly increased
effect on contractile response induced by calcium ion ([2]; control group): had no effect

Compound: N=C(N)c1ccc2cc(OC(=O)c3ccc(N=C(N)N)cc3)ccc2c1 [FUT-175]
angiospasm (thrombin): suppress angiospasm

contractile response of basilar arteries to 1 unit/ml thrombin (PAR1; SAH+E5555 (6 μg) group: autologous blood supplemented with 6 μg injected twice on Days 0 and 2, vs SAH group): smaller than that for the SAH group
contractile response of basilar arteries to 1 unit/ml thrombin (PAR1; SAH+E5555 (6 μg) group: autologous blood supplemented with 6 μg injected twice on Days 0 and 2, vs SAH group, listed as E5050): significantly suppressed
contractile response of basilar arteries to 1 unit/ml thrombin (PAR1; SAH+E5555 (60 μg) group: autologous blood supplemented with 60 μg injected twice on Days 0 and 2, vs SAH group): significantly suppressed
dose of E5555 suppressing increased reactivity to thrombin caused by subarachnoid hemorrhage (dose-dependent) (PAR1; co-administration with autologous blood, 60 ng to 60 μg tested, 1 unit/ml thrombin): ≥ 60 ng
Compound: CCOc1cc2c(c(F)c1OCC)C(=N)N(CC(=O)c1cc(N3CCOCC3)c(OC)c(C(C)(C)C)c1)C2 [Formula E5555]
contractile response of basilar arteries to 1 unit/ml thrombin (PAR1; SAH+E5555 group: 3 ml autologous blood supplemented with 600 μg E5555 injected twice into cisterns on Days 0 and 2, arteries removed Day 7, n=3): contraction by 1 unit/ml thrombin was small; also recorded: significantly suppressed the increased reactivity to thrombin

Compound: anti-thrombin III
angiospasm (thrombin): suppress angiospasm

Compound: heparin
increasement in the contractile response to PAR1-AP (rabbit basilar arteries [3]): decreased significantly
contractile response to thrombin (rabbit basilar arteries [3]; thrombin 1 unit/nil): 41.6±3.0%
